Laboratory results: patent US10385052B2, “Tricyclic compound and JAK inhibitor” (NISSAN CHEMICAL CORPORATION, priority 2014, dated 2019)

Columns and labels:
[1] = system: cytokine signaling via JAK; test: Signal assay in rat whole blood (STAT phosphorylation assay); assay type: cell-based; details: T-cell; female Lewis rat whole blood, rat IL-6 100 ng/mL, phosphated STAT-1 in CD3 positive T cells
Protocol: 2. Signal Assay in Rat Whole Blood
The inhibitory activities of the compounds of the present invention obtained in Synthetic Examples 1 and 2 against cytokine signaling via JAK were measured by STAT phosphorylation assay using rat whole blood.
Female Lewis rats were purchased from CHARLES RIVER LABORATORIES JAPAN, INC.
Rat IL-6 was purchased from PeproTech.
Each compound was used at three consecutive concentrations of 1 μM, 0.1 μM and 0.01 μM, or 10 μM, 1 μM and 0.1 μM.
The concentration of rat IL-6 was 100 ng/mL.
The concentration of FITC-CD3 was 1 μg/mL.
(§1) The blood and a compound were put into each Costar assay block tube and incubated at 37° C. for 15 minutes, then incubated with FITC-CD3 at 37° C. for 15 minutes, incubated with rat IL-6 at 37° C. for 15 minutes and incubated with 10 times as much of BD Phosflow Lyse/Fix Buffer as the blood at 37° C. for 12 minutes. Centrifugal separation was carried out at 5,884 m/s^2 for 6 minutes with a centrifugal separator to precipitate the cells, and the supernatants were removed.
(§2) The cell pellets were washed with 1 mL of phosphate buffered saline (PBS), then incubated with 0.6 mL of BD Phosflow Perm Buffer III on ice for 30 minutes and centrifuged at 5,884 m/s^2 for 6 minutes by means of a centrifugal separator to precipitate the cells, and the supernatants were removed.
(§3) The cell pellets were washed with 0.3 mL of BD Pharmingen Stain Buffer and incubated with 0.1 mL of BD Pharmingen Stain Buffer and 10 μL of BD Phosflow STAT-1 at room temperature for 30 minutes. After addition of 0.1 mL of BD Pharmingen Stain Buffer, the cells were centrifuged at 5,884 m/s^2 for 6 minutes by means of a centrifugal separator to precipitate the cells, and the supernatants were removed.
(§4) The cell pellets were washed with 0.3 mL of BD Pharmingen Stain Buffer, and 0.12 mL of BD Pharmingen Stain Buffer was added. The cytokine signaling inhibition was measured with FACS Cantoll (manufactured by BD) by detecting FITC-labeled CD3 positive T cells and detecting the amount of phosphated STAT-1 protein in the cells as the PE fluorescence. From the plot of the logarithm of a compound concentration and inhibitory activity, the IC50 value was calculated.

[2] = system: cytokine signaling via JAK; test: Signal assay in human whole blood (STAT phosphorylation assay); assay type: cell-based; details: T-cell, human IL-6 100 ng/mL, phosphated STAT-1 in CD3 positive T cells
Protocol: 3. Signal Assay in Human Whole Blood
The inhibitory activities of the compounds of the present invention obtained in Synthetic Examples 3 to 7 against cytokine signaling via JAK were measured by STAT phosphorylation assay using human whole blood.
Human whole blood was collected from healthy humans.
Human IL-6 was purchased from R&D systems.
Each compound was used at six concentrations of 3 μM, 1.5 μM, 0.75 μM, 0.38 μM, 0.19 μM and 0.093 μM, at six concentrations of 2 μM, 1 μM, 0.5 μM, 0.25 μM, 0.13 μM and 0.063 μM, or at six concentrations of 10 μM, 5 μM, 2.5 μM, 1.25 μM, 0.63 μM and 0.31 μM.
The concentration of human IL-6 was 100 ng/mL.
as §1, with “Human blood and” for “The blood and”, “C. for 30 minutes, then” for “C. for 15 minutes, then”, “incubated with human IL-6 at” for “incubated with FITC-CD3 at 37° C. for 15 minutes, incubated with rat IL-6 at”
as §2
as §3, with “Pharmingen Stain Buffer, 10 μL” for “Pharmingen Stain Buffer and 10 μL”, “Phosflow STAT-1 and 5 μL of FITC-hCD3 at room” for “Phosflow STAT-1 at room”
as §4

[3] = target: JAK1 (Homo sapiens (Human), UniProt P23458); test: JAK1 enzyme assay; assay type: biochemical; details: enzyme 0.5 μg/mL, ATP 70 μM
JAK1, sequence (P23458 whole entry): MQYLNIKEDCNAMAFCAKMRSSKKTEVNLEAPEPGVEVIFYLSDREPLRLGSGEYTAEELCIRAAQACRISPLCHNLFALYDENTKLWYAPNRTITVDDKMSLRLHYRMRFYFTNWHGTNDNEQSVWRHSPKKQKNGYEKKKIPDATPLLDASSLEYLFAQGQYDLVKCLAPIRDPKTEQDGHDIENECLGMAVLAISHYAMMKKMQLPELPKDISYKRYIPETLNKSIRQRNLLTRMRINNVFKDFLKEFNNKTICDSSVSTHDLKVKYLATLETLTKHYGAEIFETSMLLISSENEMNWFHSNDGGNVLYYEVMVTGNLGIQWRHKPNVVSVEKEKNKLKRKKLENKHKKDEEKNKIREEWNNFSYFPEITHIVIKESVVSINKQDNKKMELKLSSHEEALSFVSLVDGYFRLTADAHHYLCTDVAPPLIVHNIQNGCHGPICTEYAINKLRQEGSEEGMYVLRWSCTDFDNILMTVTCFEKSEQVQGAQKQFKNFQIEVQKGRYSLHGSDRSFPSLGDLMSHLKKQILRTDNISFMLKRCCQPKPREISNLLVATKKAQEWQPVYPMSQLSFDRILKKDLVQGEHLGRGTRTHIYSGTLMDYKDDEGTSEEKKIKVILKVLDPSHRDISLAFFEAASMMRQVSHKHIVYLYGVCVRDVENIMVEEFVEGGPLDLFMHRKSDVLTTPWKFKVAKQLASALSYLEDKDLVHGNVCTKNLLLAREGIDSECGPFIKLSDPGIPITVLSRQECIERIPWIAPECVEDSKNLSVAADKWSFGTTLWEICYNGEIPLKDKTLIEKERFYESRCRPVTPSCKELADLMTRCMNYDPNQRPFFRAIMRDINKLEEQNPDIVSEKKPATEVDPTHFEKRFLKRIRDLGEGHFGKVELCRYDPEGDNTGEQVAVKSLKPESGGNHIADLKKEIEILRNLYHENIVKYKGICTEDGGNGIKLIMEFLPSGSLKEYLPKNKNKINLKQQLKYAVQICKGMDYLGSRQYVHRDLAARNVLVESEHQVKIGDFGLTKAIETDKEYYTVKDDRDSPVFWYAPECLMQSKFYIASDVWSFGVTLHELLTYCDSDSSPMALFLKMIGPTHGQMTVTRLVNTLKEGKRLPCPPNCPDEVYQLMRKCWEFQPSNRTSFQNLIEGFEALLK
Protocol: (§5) The JAK inhibitory activities of compounds of the present invention were measured.
(§6) The enzymes (JAK1, JAK2, JAK3 and Tyk2) were purchased from Carna Biosciences, Inc.
(§7) As the substrate for the enzymes (hereinafter referred to as the substrate), LANCE Ultra ULight-JAK-1 (Tyr1023) Peptide (manufactured by PerkinElmer Co., Ltd.) was used.
(§8) As the antibody for detecting phosphorylation of the substrate, LANCE Ultra Europium-anti-phospho tyrosine antibody (PT66) (manufactured by PerkinElmer Co., Ltd.) was used.
(§9) The compounds of the present invention, the enzymes (JAK1, JAK2, JAK3 and Tyk2), the substrate and ATP were used for the assays after diluted with the assay buffer.
(§10) The enzyme concentrations and the ATP concentrations in the respective enzyme (JAK1, JAK2, JAK3 and Tyk2) assays were as follows.
JAK1 enzyme assay; the enzyme concentration was 0.5 μg/mL, and the ATP concentration was 70 μM.
(§11) The concentration of the substrate for the enzymes was 25 nM.
(§12) Dilute solutions of compounds and enzymes were dispensed into wells of a 384-well black plate (manufactured by Greiner bio-one) and preincubated at room temperature for 5 minutes.
(§13) Then, a dilute solution of the substrate and then a dilute solution of ATP were added, and the plate was incubated at room temperature for 30 minutes.
(§14) Then, a dilute solution of EDTA and then a dilute solution of PT66 were added, and the plate was incubated at room temperature for 1 hour.
(§15) The fluorescences were measured with ARVO-HTS, and from the plot of logarithm of a compound concentration and inhibitory activity, the IC50 value was calculated.

[4] = target: JAK2 (Homo sapiens (Human), UniProt O60674); test: JAK2 enzyme assay; assay type: biochemical; details: enzyme 0.013 μg/mL, ATP 10 μM
JAK2, sequence (O60674 whole entry): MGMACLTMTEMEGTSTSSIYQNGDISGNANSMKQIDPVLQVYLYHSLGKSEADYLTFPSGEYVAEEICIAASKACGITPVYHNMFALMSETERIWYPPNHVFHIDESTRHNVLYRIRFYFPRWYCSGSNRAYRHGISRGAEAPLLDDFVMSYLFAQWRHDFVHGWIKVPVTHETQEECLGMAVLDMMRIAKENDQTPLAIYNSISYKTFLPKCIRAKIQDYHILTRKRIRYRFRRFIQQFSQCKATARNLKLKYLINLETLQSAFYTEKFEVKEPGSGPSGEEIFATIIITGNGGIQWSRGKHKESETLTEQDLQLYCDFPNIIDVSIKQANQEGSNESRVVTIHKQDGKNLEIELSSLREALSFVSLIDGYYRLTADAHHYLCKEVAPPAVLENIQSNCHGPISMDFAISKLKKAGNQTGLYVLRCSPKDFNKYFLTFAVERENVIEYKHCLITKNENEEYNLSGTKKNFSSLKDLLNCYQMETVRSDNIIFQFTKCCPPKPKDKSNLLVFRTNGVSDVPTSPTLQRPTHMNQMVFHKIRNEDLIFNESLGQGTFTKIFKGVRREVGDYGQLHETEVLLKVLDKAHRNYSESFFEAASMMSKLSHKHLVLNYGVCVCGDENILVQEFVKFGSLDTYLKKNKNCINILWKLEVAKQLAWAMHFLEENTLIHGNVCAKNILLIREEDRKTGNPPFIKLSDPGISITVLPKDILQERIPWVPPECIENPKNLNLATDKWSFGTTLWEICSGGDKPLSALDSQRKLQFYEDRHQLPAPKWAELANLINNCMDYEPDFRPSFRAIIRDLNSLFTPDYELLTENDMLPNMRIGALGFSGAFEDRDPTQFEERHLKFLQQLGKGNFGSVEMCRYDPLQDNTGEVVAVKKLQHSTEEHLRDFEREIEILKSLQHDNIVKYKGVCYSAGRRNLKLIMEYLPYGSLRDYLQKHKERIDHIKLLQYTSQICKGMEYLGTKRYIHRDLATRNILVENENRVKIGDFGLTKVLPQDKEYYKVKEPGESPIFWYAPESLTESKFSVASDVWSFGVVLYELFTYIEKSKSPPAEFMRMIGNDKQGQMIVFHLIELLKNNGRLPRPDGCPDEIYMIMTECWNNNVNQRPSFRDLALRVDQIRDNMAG
Protocol: as §5, §6, §7, §8, §9, §10
JAK2 enzyme assay; the enzyme concentration was 0.013 μg/mL, and the ATP concentration was 10 μM.
as §11, §12, §13, §14, §15

[5] = target: JAK3 (Homo sapiens (Human), UniProt P52333); test: JAK3 enzyme assay; assay type: biochemical; details: enzyme 0.020 μg/mL, ATP 3 μM
JAK3, sequence (P52333 whole entry): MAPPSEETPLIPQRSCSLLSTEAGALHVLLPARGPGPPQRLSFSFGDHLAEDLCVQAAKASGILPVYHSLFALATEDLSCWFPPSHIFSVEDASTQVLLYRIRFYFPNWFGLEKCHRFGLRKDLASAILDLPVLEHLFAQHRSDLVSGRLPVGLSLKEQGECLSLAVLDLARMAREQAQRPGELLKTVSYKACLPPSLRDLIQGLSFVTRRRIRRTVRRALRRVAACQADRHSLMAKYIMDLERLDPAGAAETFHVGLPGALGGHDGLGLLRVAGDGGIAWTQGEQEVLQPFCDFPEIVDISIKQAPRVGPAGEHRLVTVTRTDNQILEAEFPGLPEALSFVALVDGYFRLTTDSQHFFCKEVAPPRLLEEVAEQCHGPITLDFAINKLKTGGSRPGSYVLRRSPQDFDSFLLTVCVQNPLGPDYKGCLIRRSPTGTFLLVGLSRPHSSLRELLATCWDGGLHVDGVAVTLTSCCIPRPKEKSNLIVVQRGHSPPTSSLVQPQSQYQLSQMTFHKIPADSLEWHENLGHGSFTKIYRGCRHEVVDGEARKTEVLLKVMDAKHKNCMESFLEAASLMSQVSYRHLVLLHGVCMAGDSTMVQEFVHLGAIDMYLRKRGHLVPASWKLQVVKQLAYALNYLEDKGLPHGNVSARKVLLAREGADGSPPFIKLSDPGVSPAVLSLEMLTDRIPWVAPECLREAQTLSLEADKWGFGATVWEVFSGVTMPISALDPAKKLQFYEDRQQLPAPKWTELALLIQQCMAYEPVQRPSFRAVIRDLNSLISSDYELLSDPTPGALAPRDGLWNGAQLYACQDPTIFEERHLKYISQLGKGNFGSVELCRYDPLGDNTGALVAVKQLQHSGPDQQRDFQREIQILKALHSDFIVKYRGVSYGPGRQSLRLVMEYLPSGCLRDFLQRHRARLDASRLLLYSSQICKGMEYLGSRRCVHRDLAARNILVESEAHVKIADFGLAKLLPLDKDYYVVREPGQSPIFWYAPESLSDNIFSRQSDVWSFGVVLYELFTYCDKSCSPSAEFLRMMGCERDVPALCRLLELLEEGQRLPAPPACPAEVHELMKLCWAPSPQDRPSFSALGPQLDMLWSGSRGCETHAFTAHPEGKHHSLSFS
Protocol: as §5, §6, §7, §8, §9, §10
JAK3 enzyme assay; the enzyme concentration was 0.020 μg/mL, and the ATP concentration was 3 μM.
as §11, §12, §13, §14, §15

[6] = target: Tyk2 (Homo sapiens (Human), UniProt P29597); test: Tyk2 enzyme assay; assay type: biochemical; details: enzyme 0.25 μg/mL, ATP 20 μM
Tyk2, sequence (P29597 whole entry): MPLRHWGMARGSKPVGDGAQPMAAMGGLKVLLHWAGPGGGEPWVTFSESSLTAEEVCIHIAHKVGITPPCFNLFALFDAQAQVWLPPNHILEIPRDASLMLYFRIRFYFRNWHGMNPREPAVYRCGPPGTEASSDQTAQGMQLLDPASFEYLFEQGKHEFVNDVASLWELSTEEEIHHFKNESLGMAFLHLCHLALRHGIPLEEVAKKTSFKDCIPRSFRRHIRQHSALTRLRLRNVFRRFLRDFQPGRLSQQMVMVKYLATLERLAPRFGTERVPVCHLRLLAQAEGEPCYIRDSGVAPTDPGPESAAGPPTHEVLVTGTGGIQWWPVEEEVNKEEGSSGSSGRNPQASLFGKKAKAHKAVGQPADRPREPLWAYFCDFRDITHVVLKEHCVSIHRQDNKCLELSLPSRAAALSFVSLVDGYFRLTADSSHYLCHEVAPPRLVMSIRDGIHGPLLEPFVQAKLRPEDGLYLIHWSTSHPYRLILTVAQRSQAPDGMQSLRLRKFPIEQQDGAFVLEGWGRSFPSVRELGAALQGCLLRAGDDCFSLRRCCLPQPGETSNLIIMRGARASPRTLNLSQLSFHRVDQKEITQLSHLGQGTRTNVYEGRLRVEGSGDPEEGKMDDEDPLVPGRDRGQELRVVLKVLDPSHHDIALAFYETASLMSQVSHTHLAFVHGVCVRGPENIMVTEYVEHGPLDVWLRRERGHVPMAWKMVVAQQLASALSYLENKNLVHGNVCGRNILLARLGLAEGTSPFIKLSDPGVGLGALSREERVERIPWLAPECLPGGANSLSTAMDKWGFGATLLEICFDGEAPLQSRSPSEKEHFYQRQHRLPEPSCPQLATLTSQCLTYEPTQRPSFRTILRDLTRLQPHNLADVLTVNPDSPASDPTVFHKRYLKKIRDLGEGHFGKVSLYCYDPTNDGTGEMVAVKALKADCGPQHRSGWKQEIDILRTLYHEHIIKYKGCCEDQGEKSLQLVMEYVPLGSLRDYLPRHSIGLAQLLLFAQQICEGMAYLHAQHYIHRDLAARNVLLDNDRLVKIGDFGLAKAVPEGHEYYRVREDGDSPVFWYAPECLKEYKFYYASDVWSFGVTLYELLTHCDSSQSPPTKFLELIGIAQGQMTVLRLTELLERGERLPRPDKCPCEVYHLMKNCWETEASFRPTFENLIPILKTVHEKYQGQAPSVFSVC
Protocol: as §5, §6, §7, §8, §9, §10
Tyk2 enzyme assay; the enzyme concentration was 0.25 μg/mL and the ATP concentration was 20 μM.
as §11, §12, §13, §14, §15

Structure (SMILES)	IC50 [1] [nM]	IC50 [2] [nM]	IC50 [3] [nM]	IC50 [4] [nM]	IC50 [5] [nM]	IC50 [6] [nM]
O=c1[nH]c(=O)n(C2CCC(CNCC(F)(F)F)CC2)c2c1cnc1[nH]ccc12 (stereo not shown) [A]	2400	–	–	–	–	–
N#CCCN(CCC#N)CC1CCC(n2c(=O)[nH]c(=O)c3cnc4[nH]ccc4c32)CC1 (stereo not shown) [Compound B]	1300	–	–	–	–	–
O=c1ccn(C2CCCCC2)c2c1cnc1[nH]ccc12 [Compound E, reference compound]	–	1300	–	–	–	–
O=C1CCN(C2CCC(CO)CC2)c2c1cnc1[nH]ccc21 (stereo not shown) [Compound F, reference compound]	–	5900	–	–	–	–
COC1CCC(n2ccc(=O)c3cnc4[nH]ccc4c32)CC1 (stereo not shown) [Compound G, reference compound]	–	6500	–	–	–	–
Cc1nc(CN2CCC(n3ccc(=O)c4cnc5[nH]ccc5c43)CC2)cs1 [Compound J, reference compound]	–	7600	–	–	–	–
N#CC[C@@H](NC[C@H]1CC[C@H](n2c(=O)[nH]c(=O)c3cnc4[nH]ccc4c32)CC1)C(F)(F)F [Synthetic Example 1, (R)-3-({[trans-4-(2,4-Dioxo-2,3,4,7-tetrahydro-1H-pyrrolo[3′,2′:5,6]pyrido[4,3-d]pyrimidin-1-yl)cyclohexyl]methyl}amino)-4,4,4-trifluorobutanenitrile]	390	–	0.99	4.6	15	22
O=c1[nH]c(=O)n([C@H]2CC[C@H](COCCC(F)(F)F)CC2)c2c1cnc1[nH]ccc12 [Synthetic Example 2, 1-{trans-4-[(3,3,3-Trifluoropropoxy)methyl]cyclohexyl}-1H-pyrrolo[3′,2′:5,6]pyrido[4,3-d]pyrimidine-2,4(3H,7H)-dione]	270	–	0.35	1.5	2.9	26

More lines, now with the values ahead:

IC50 [1] [nM]	IC50 [2] [nM]	IC50 [3] [nM]	IC50 [4] [nM]	IC50 [5] [nM]	IC50 [6] [nM]	Structure (SMILES)
–	440	1.7	5.1	10	18	N#CC[C@@H](NC[C@H]1CC[C@H](n2ccc(=O)c3cnc4[nH]ccc4c32)CC1)C(F)(F)F [Synthetic Example 3, (R)-4,4,4-Trifluoro-3-({[trans-4-(4-oxo-4,7-dihydro-1H-pyrrolo[2,3-h][1,6]naphthyridin-1-yl)cyclohexyl]methyl}amino)butanenitrile]
–	300	0.41	1.9	7.1	39	Cc1cnn(C[C@H]2CC[C@H](n3ccc(=O)c4cnc5[nH]ccc5c43)CC2)c1 [Synthetic Example 4, 1-{trans-4-[(4-Methyl-1H-pyrazol-1-yl)methyl]cyclohexyl}-1H-pyrrolo[2,3-h][1,6]naphthyridin-4(7H)-one]
–	170	0.59	–	2.7	10	O=c1ccn([C@H]2CC[C@H](COCC(F)(F)F)CC2)c2c1cnc1[nH]ccc12 [Synthetic Example 5, 1-{trans-4-[(2,2,2-Trifluoroethoxy)methyl]cyclohexyl}-1H-pyrrolo[2,3-h][1,6]naphthyridin-4(7H)-one]
–	130	0.68	1.6	2.5	19	O=c1ccn([C@H]2CC[C@H](COCCC(F)(F)F)CC2)c2c1cnc1[nH]ccc12 [Synthetic Example 6, 1-{trans-4-[(3,3,3-Trifluoropropoxy)methyl]cyclohexyl}-1H-pyrrolo[2,3-h][1,6]naphthyridin-4(7H)-one]
–	150	0.74	2	5.1	11	N#CC[C@@H](OC[C@H]1CC[C@H](n2ccc(=O)c3cnc4[nH]ccc4c32)CC1)C(F)(F)F [Synthetic Example 7, (R)-4,4,4-Trifluoro-3-{[trans-4-(4-oxo-4,7-dihydro-1H-pyrrolo[2,3-h][1,6]naphthyridin-1-yl)cyclohexyl]methoxy}butanenitrile]
